Measured values reported in ChEMBL document CHEMBL3621157, “Design, synthesis and biological evaluation of novel 1,2,4-triazolo and 1,2,4-triazino[4,3-a]quinoxalines as potential anticancer and antimicrobial agents” (2015).
≈ marks a conversion by molar mass, not a printed value.

Tests used:
Type in all cases: functional
HOP-62 = assay: Growth inhibition of human HOP62 cells incubated for 48 hrs by sulforhodamine B assay; conditions: HOP-62, 48 h
SR [1] = assay: Growth inhibition of human SR cells incubated for 48 hrs by sulforhodamine B assay
U-251 [2] = assay: Growth inhibition of human U251 cells at 10 uM incubated for 48 hrs by sulforhodamine B assay; conditions: U-251, 48 h, read-out: GI
[3] = Growth inhibition of human HCC2998 cells incubated for 48 hrs by sulforhodamine B assay; conditions: HCC 2998, 48 h
IGROV-1 = assay: Growth inhibition of human IGROV1 cells incubated for 48 hrs by sulforhodamine B assay; conditions: IGROV-1, 48 h
Pseudomonas aeruginosa = assay: Antimicrobial activity against Pseudomonas aeruginosa ATCC 10145 incubated at 37 degC for 24 hrs by cup diffusion method
[4] = Growth inhibition of human EKVX cells at 10 uM incubated for 48 hrs by sulforhodamine B assay; conditions: read-out: GI
ACHN = assay: Growth inhibition of human ACHN cells incubated for 48 hrs by sulforhodamine B assay
MDA-MB-468 = assay: Growth inhibition of human MDA-MB-468 cells incubated for 48 hrs by sulforhodamine B assay; conditions: MDA-MB-468, 48 h
Malme-3M = assay: Growth inhibition of human MALME-3M cells incubated for 48 hrs by sulforhodamine B assay
Bacillus subtilis [5] = assay: Antimicrobial activity against Bacillus subtilis ATCC 6633 incubated at 37 degC for 24 hrs by cup diffusion method
Staphylococcus aureus = assay: Antimicrobial activity against Staphylococcus aureus DSM 1104 incubated at 37 degC for 24 hrs by cup diffusion method
[6] = Growth inhibition of human Hs 578T cells incubated for 48 hrs by sulforhodamine B assay
[7] = Growth inhibition of human LOXIMVI cells incubated for 48 hrs by sulforhodamine B assay; conditions: LOX IMVI
SR [8] = assay: Growth inhibition of human SR cells at 10 uM incubated for 48 hrs by sulforhodamine B assay; conditions: read-out: GI
SK-MEL-2 = assay: Growth inhibition of human SK-MEL-2 cells incubated for 48 hrs by sulforhodamine B assay; conditions: SK-MEL-2, 48 h
T47D = assay: Growth inhibition of human T47D cells incubated for 48 hrs by sulforhodamine B assay
OVCAR-3 = assay: Growth inhibition of human OVCAR3 cells incubated for 48 hrs by sulforhodamine B assay; conditions: OVCAR-3, 48 h
HCT-15 = assay: Growth inhibition of human HCT15 cells at 10 uM incubated for 48 hrs by sulforhodamine B assay; conditions: HCT-15, 48 h, read-out: GI
A549 = assay: Growth inhibition of human A549 cells incubated for 48 hrs by sulforhodamine B assay; conditions: A549, 48 h
NCI-H460 [9] = assay: Growth inhibition of human NCI-H460 cells incubated for 48 hrs by sulforhodamine B assay; conditions: NCI-H460, 48 h
HCT-116 [10] = assay: Growth inhibition of human HCT116 cells incubated for 48 hrs by sulforhodamine B assay; conditions: HCT-116, 48 h
HL-60(TB) = assay: Growth inhibition of human HL-60(TB) cells incubated for 48 hrs by sulforhodamine B assay; conditions: HL-60, 48 h
SK-MEL-5 = assay: Growth inhibition of human SK-MEL-5 cells incubated for 48 hrs by sulforhodamine B assay; conditions: SK-MEL-5, 48 h
SF-268 = assay: Growth inhibition of human SF268 cells at 10 uM incubated for 48 hrs by sulforhodamine B assay; conditions: SF-268, 48 h, read-out: GI
MDA-MB-231 = assay: Growth inhibition of human MDA-MB-231 cells incubated for 48 hrs by sulforhodamine B assay; conditions: MDA-MB-231, 48 h
HT-29 = assay: Growth inhibition of human HT-29 cells incubated for 48 hrs by sulforhodamine B assay; conditions: HT-29, 48 h
Bacillus subtilis [11] = assay: Antimicrobial activity against Bacillus subtilis ATCC 6633 incubated for 24 hrs followed by transfer of colonies to Muller-Hinton agar plate and measured after 18 hrs by two-fold serial broth dilution method
NCI-H226 = assay: Growth inhibition of human NCI-H226 cells incubated for 48 hrs by sulforhodamine B assay; conditions: NCI-H226, 48 h
[12] = Growth inhibition of human RPMI8226 cells at 10 uM incubated for 48 hrs by sulforhodamine B assay; conditions: RPMI-8226, 48 h, read-out: GI
Candida albicans = assay: Antimicrobial activity against Candida albicans DSM 70014 incubated for 48 hrs by two-fold serial broth dilution method; conditions: DSM 70014, 48 h
SNB-75 = assay: Growth inhibition of human SNB75 cells incubated for 48 hrs by sulforhodamine B assay; conditions: SNB-75, 48 h
UO-31 = assay: Growth inhibition of human UO31 cells incubated for 48 hrs by sulforhodamine B assay; conditions: UO-31, 48 h
SW-620 = assay: Growth inhibition of human SW620 cells incubated for 48 hrs by sulforhodamine B assay; conditions: SW-620, 48 h
[13] = Growth inhibition of human HOP92 cells at 10 uM incubated for 48 hrs by sulforhodamine B assay; conditions: HOP-92, 48 h, read-out: GI
KM12 = assay: Growth inhibition of human KM12 cells incubated for 48 hrs by sulforhodamine B assay; conditions: KM12, 48 h
[14] = Growth inhibition of human SF539 cells incubated for 48 hrs by sulforhodamine B assay; conditions: SF-539, 48 h
CCRF-CEM = assay: Growth inhibition of human CCRF-CEM cells incubated for 48 hrs by sulforhodamine B assay
[15] = Growth inhibition of human MOLT4 cells incubated for 48 hrs by sulforhodamine B assay; conditions: MOLT-4, 48 h
Escherichia coli = assay: Antimicrobial activity against Escherichia coli ATCC 11775 incubated for 24 hrs by two-fold serial broth dilution method; conditions: ATCC 11775, 24 h
Bacillus subtilis [16] = assay: Antimicrobial activity against Bacillus subtilis ATCC 6633 incubated for 24 hrs by two-fold serial broth dilution method; conditions: ATCC 6633, 24 h
NCI-H460 [17] = assay: Growth inhibition of human NCI-H460 cells at 10 uM incubated for 48 hrs by sulforhodamine B assay; conditions: NCI-H460, 48 h, read-out: GI
U-251 [18] = assay: Growth inhibition of human U251 cells incubated for 48 hrs by sulforhodamine B assay; conditions: U-251, 48 h
K562 = assay: Growth inhibition of human K562 cells incubated for 48 hrs by sulforhodamine B assay; conditions: K562, 48 h
[19] = Growth inhibition of human SF295 cells incubated for 48 hrs by sulforhodamine B assay; conditions: SF-295, 48 h
HCT-116 [20] = assay: Growth inhibition of human HCT116 cells at 10 uM incubated for 48 hrs by sulforhodamine B assay; conditions: HCT-116, 48 h, read-out: GI
[21] = Growth inhibition of human RPMI8226 cells incubated for 48 hrs by sulforhodamine B assay; conditions: RPMI-8226, 48 h

## Clc1ccccc1-c1nnc2c(Cc3ccccc3)nc3ccccc3n12
HOP-62
  GI50: 12.4 µM
SR [1]
  GI50: 3.91 µM
U-251 [2]
  inhibition of growth at 10 µM: 57.2%
[3]
  GI50: 42.8 µM
IGROV-1
  GI50: 27.7 µM
Pseudomonas aeruginosa
  inhibition zone (IZ): 14 mm
[4]
  inhibition of growth at 10 µM: 48.1%
ACHN
  GI50: 34.1 µM
MDA-MB-468
  GI50: 5.55 µM
Malme-3M
  GI50: 23.8 µM
Bacillus subtilis [5]
  inhibition zone (IZ): 12 mm
Staphylococcus aureus
  inhibition zone (IZ): 12 mm
[6]
  GI50: 9.66 µM
[7]
  GI50: 3.69 µM
SR [8]
  inhibition of growth at 10 µM: 84.9%
SK-MEL-2
  GI50: 55.8 µM
T47D
  GI50: 6.82 µM
OVCAR-3
  GI50: 21.7 µM
HCT-15
  inhibition of growth at 10 µM: 55.4%
A549
  GI50: 8.77 µM
NCI-H460 [9]
  GI50: 3.49 µM
HCT-116 [10]
  GI50: 3.21 µM
HL-60(TB)
  GI50: 32.5 µM
SK-MEL-5
  GI50: 5.9 µM
SF-268
  inhibition of growth at 10 µM: 47.5%
MDA-MB-231
  GI50: 6.24 µM
HT-29
  GI50: 9.15 µM
Bacillus subtilis [11]
  MBC: 50 µg/mL (≈ 135 µM)
NCI-H226
  GI50: 9.96 µM
[12]
  inhibition of growth at 10 µM: 63.8%
Candida albicans
  MIC: 100 µg/mL (≈ 270 µM)
SNB-75
  GI50: 6.12 µM
UO-31
  GI50: 25 µM
SW-620
  GI50: 43.4 µM
[13]
  inhibition of growth at 10 µM: 50.1%
KM12
  GI50: 9.48 µM
[14]
  GI50: 24.2 µM
CCRF-CEM
  GI50: 7.11 µM
[15]
  GI50: 9.04 µM
Escherichia coli
  MIC: 25 µg/mL (≈ 67.4 µM)
Bacillus subtilis [16]
  MIC: 25 µg/mL (≈ 67.4 µM)
NCI-H460 [17]
  inhibition of growth at 10 µM: 84.4%
U-251 [18]
  GI50: 5.18 µM
K562
  GI50: 5.55 µM
[19]
  GI50: 12.3 µM
HCT-116 [20]
  inhibition of growth at 10 µM: 65.9%
[21]
  GI50: 5.64 µM
